Experimental data from PubChem BioAssay (NCI).
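Test compounds were applied to cells in 96-well plates for 48 hours at 5 doses. TGI marks complete inhibition of growth.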

Assays:
Test in all cases: growth of human tumour cells (NCI), 48 h
HOP-92 NSCLC = system: HOP-92 NSCLC
A549 NSCLC = system: A549 NSCLC
UACC-62 melanoma = system: UACC-62 melanoma
U251 CNS = system: U251 CNS
BT-549 breast = system: BT-549 breast
OVCAR-4 ovarian = system: OVCAR-4 ovarian
SR leukemia = system: SR leukemia
NCI/ADR-RES ovarian = system: NCI/ADR-RES ovarian
SF-295 CNS = system: SF-295 CNS
HS 578T breast = system: HS 578T breast
MCF7 breast = system: MCF7 breast
NCI-H226 lung = system: NCI-H226 lung
SF-268 CNS = system: SF-268 CNS
786-0 renal = system: 786-0 renal
HT29 colon = system: HT29 colon
HCT-15 colon = system: HCT-15 colon
CAKI-1 renal = system: CAKI-1 renal
HCT-116 colon = system: HCT-116 colon
HL-60(TB) leukemia = system: HL-60(TB) leukemia

| Structure (SMILES) | TGI (HOP-92 NSCLC) [µM] | TGI (A549 NSCLC) [µM] | TGI (UACC-62 melanoma) [µM] | TGI (U251 CNS) [µM] | TGI (BT-549 breast) [µM] | TGI (OVCAR-4 ovarian) [µM] | TGI (SR leukemia) [µM] | TGI (NCI/ADR-RES ovarian) [µM] | TGI (SF-295 CNS) [µM] | TGI (HS 578T breast) [µM] | TGI (MCF7 breast) [µM] | TGI (NCI-H226 lung) [µM] | TGI (SF-268 CNS) [µM] | TGI (786-0 renal) [µM] | TGI (HT29 colon) [µM] | TGI (HCT-15 colon) [µM] | TGI (CAKI-1 renal) [µM] | TGI (HCT-116 colon) [µM] | TGI (HL-60(TB) leukemia) [µM] |
| --- | --- | --- | --- | --- | --- | --- | --- | --- | --- | --- | --- | --- | --- | --- | --- | --- | --- | --- | --- |
| CCC(=O)O[C@H]1CC[C@H]2[C@@H]3CCC4=C/C(=N/OC(=O)c5cccc6c(=O)c7ccccc7[nH]c56)CC[C@]4(C)[C@H]3CC[C@]12C | 74.5 | > 100 | > 100 | > 100 | > 100 | > 100 | > 100 | > 100 | > 100 | > 100 | 48.2 | > 100 | > 100 | 36.5 | > 100 | 61.9 |  |  |  |
| O=C(N[C@@H](c1ccccc1)[C@@H](O)C(=O)OCc1ccc([N+](=O)[O-])cc1)c1ccccc1 | > 100 | > 100 | > 100 | > 100 | > 100 | > 100 |  | > 100 |  | > 100 | > 100 | > 100 | > 100 | > 100 | > 100 | > 100 | > 100 | > 100 |  |
| COC(=O)c1c(C#N)[nH]c(-c2ccsc2)c1C(=O)OC | > 100 | > 100 | > 100 | > 100 | > 100 |  | > 100 | > 100 | > 100 | > 100 | > 100 | > 100 | > 100 | > 100 | > 100 |  | > 100 | > 100 |  |
| COc1ccc(OC)c(C(Cc2ccnc3ccccc23)Cc2ccnc3ccccc23)c1 | > 10 | > 10 | > 10 | > 10 | > 10 | > 10 |  | > 10 | > 10 | > 10 | > 10 | > 10 | > 10 | > 10 | > 10 | > 10 | > 10 | > 10 |  |
| Fc1ccc(C(=C2CCN(CCc3ccc4[nH]c(=S)[nH]c4c3)CC2)c2ccc(F)cc2)cc1 | 8.51 | > 40.5 | 19 | 11.3 | 14.2 | 12.7 |  | 37.3 | 18.8 | 40.8 | 5.94 | 52.3 | 25.9 | 3.61 | 3.82 | 11.4 | 28.6 | 3.47 | 4.63 |
| O=C(Nc1nncs1)NS(=O)(=O)n1c(=S)sc2ccccc21 | > 100 | > 100 | > 100 | > 100 | > 100 | > 100 | > 100 | > 100 | > 100 | > 100 | > 100 |  | > 100 | > 100 | > 100 | > 100 | > 100 | > 100 | > 100 |
| COc1ccc2c(c1)C(=O)OCCC2 | > 100 | > 100 | > 100 | > 100 | > 100 | > 100 |  | > 100 | > 100 | > 100 | > 100 | > 100 | > 100 | > 100 | > 100 | > 100 | > 100 | > 100 | > 100 |
| COc1ccc(-n2cnn3c(=O)c4cn[nH]c4nc23)cc1 | > 10 | > 10 |  | > 10 | > 10 | > 10 | > 10 |  | > 10 | > 10 | > 10 | > 10 | > 10 | > 10 | > 10 |  |  | > 10 | > 10 |
| CC(C)N(C(=O)C1(O)c2ccccc2C=Cc2ccccc21)C(C)C |  | 48.3 | 29.5 | 30.5 | 34.6 | 52 | 63 | 35.4 | 33.7 | 68.8 | 31 | 35.8 | 36 | 38.8 | 33.5 | 44.6 | 57.7 | 32.8 |  |
| [N-]=[N+]=Nc1cc(=O)[nH]nc1-c1ccccc1 | > 100 | > 100 | > 100 | > 100 | > 100 | > 100 | > 100 | > 100 | > 100 | > 100 | > 100 | > 100 | > 100 | > 100 | > 100 | > 100 |  | > 100 | > 100 |
| CCOC(=O)/C=C/[C@H](O[Si](CC)(CC)CC)C(C)(C)C | > 100 | > 100 | > 100 | 65.8 | > 100 | > 100 | 50.7 | > 100 | > 100 | > 100 | 66.9 | > 100 | > 100 | > 100 | > 100 | > 100 | > 100 | > 100 |  |
